Read-outs that look alike come from different tables or passages of the source. Non-standard residues stand in square brackets, D forms with d. Residues, ends and D or L forms follow the SMILES beside them.
Key:
Aβ1-42 = target: T1, Aβ1-42 (Homo sapiens, UniProt P05067); test: Aβ aggregation assay (Thioflavin T); format: biochemical; conditions: for molar excess with regard to Aβ for complete inhibition of Aβ1-42 fibril formation: 10 μM Aβ1-42, ThT; for reduction of the aggregation amplitude: equimolar concentration of peptide relative to Aβ1-42 (10 μM)
T1 construct: Lyophilized Aβ1 - 42 was dissolved in the respective peptide solution; purchased Isoloid GmbH (recombinant) or Bachem AG (synthetic)
T1 sequence (P05067 672-713 limits assumed): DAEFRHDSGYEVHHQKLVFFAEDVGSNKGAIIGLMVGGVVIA
Protocol: The potencies of ANK6, tANK6, cANK6r, and D3 to inhibit Aβ1 - 42 aggregation was examined using Thioflavin T (ThT). For this purpose, a buffer solution composed of 20 mM sodium phosphate buffer (pH 7.4) including 50 mM sodium chloride, and 5μM ThT was prepared. Afterwards, ANK6, tANK6, cANK6r, or D3 were diluted in this solution, respectively, to final peptide concentrations between 0.3125 and 80μM (ANK6 and tANK6:0.3125, 0.625, 1.25, 2.5, 5, 10, 20μM; cANK6r: 1.25, 2.5, 5, 10, 20, 40, 80μM; D3:1.17, 2.34, 4.7, 9.4, 18.8, 37.5, 75μM).
The buffer solution only served as negative control (blank). Lyophilized Aβ1 - 42 was dissolved in the respective peptide solution to a final concentration of 10μM. D-peptide solutions with the highest concentration of the respective D-peptide containing all components, except of Aβ1 - 42, served as negative controls. Aβ1 - 42 solved in buffer solution without D-peptide served as positive control. 100μL of each solution were transferred into the wells (triplicates) of 96 well microplates (PS, black, non-binding from Greiner Bio-One, Germany) and fluorescence signals (excitationλ 440 nm, emissionλ 490 nm) were measured in a Polarstar Optima plate reader (BMG, Germany) at 37°C every 20 min for 70 h. Afterwards, the respective blank curves were subtracted from each aggregation curve to exclude background fluorescence. […] The half maximal inhibitory concentration (IC50 value) was determined by plotting the percent inhibition against the respective D-peptides’ concentrations. Datasets were fitted by nonlinear regression (one site – specific binding with Hill slope, GraphPad Prism 5).

[1] = Free drug fraction (fu) in human plasma predicted from HSA and AGP affinities; format: in vitro ADME; conditions: predicted from affinities to HSA and AGP, at 0.01 μM peptide (blood level 4 h after oral administration)
Protocol: Plasma protein binding (PPB) to human serum albumin (HSA) and α1-acid glycoprotein (AGP) of ANK6, tANK6, and cANK6r was analyzed according to the manufacturer’s protocol of TRANSIL^XL HSA and AGP binding kits (Sovicell GmbH, Germany). To cover a larger range of HSA and AGP concentrations, the bead concentrations in the kit were modified. For detection, a mixture of ^3H-labelled and non-labelled ANK6, tANK6, and cANK6r (final concentrations of 5μM) was added to different concentrations of HSA (7.4μM to 420μM, 10–12 different concentrations) or AGP beads (0.04μM to 3μM, 9–12 different concentrations). The amount of unbound ANK6, tANK6, and cANK6r (in %) to HSA or AGP, respectively, was determined by liquid scintillation counter (LSC) measurements. The dissociation constants (KD) as well as the free drug fractions (fu) in human plasma were calculated as described before. Calculations were based on peptide concentrations detected in the blood 4 h after single oral administration of 10 mg/kg: 0.01μM ANK6, 0.01μM tANK6, and 0.01μM cANK6r.

[2] = Blood-brain barrier values (logBB, Kin, Vi, PS); format: in vivo, C57Bl/6N mice; conditions: mice; for logBB, blood-brain equilibrium distribution: after i.v. administration 3.3 mg/kg, log(AUClast,br/AUClast,pl); for PS, permeability surface-area product / Vin / Kin, unidirectional influx rate constant: after i.v. administration; for PS, permeability surface-area product: CBF 1.07 mL/(g*min); for Vin: graphical determination (initial distribution volume in brain); for Kin, unidirectional influx rate constant: graphical determination, linear range 0-240 min (ANK6, cANK6r), 0-1440 min (tANK6)
Protocol: To allow for direct comparison with other peptides, four universally applied BBB parameters were determined: the blood-brain equilibrium distribution (logBB), the […] influx rate constant (Kin), the initial distribution volume in brain (Vi), and the permeability surface-area product (PS). Based on data of the concentration-time profiles and pharmacokinetic parameters after i.v. administration, the BBB parameters were calculated with the help of the formulas listed in Table 2. Graphical determination of Kin and Vi was conducted by plotting the brain concentration to plasma concentration ratio at certain time points (Cb (t)/Cp (t) [mL/g]) on the y-axis against the exposure time (AUCp (t)/Cp (t) [min]) on the x-axis. The linear range for Kin and Vi determination was between 0 and 240 min for ANK6 and cANK6r (R^2: 0.9970, 0.9996) and between 0 and 1440 min for tANK6 (R^2: 0.9758). PS was calculated on the basis of a murine cerebral blood flow (CBF) of 1.07 mL/(g*min).

[3] = 10 μM Aβ1-42, 5 μM ThT, 20 mM sodium phosphate pH 7.4, 50 mM NaCl, 37°C, 70 h, triplicates, nonlinear regression, read-out: IC50, inhibition of Aβ1-42 aggregation into ThT-positive fibrils

Compound	IC50 (Aβ1-42; [3]) [µM]	molar excess with regard to Aβ for complete inhibition of Aβ1-42 fibril formation (Aβ1-42)	reduction of the aggregation amplitude (Aβ1-42)	overall fu in plasma (fraction unbound) [1] [%]	logBB, blood-brain equilibrium distribution [2]	PS, permeability surface-area product [2] [mL/g/min]	Vin [2] [mL/g]	Kin, unidirectional influx rate constant [2] [mL/g/min]	IC50 (Aβ1-42) [µM]
CC[C@@H](C)[C@@H](NC(=O)[C@@H](CCCNC(=N)N)NC(=O)[C@@H](CCCCN)NC(=O)[C@H](N)CCCNC(=N)N)C(=O)N[C@H](CCCNC(=N)N)C(=O)N[C@H](CC(C)C)C(=O)N[C@@H](C(=O)N[C@@H](C(=O)N[C@H](CCCCN)C(=O)N[C@H](CCCCN)C(=O)N[C@H](CCCCN)C(=O)N[C@H](CCCNC(=N)N)C(=O)N[C@H](CCCNC(=N)N)C(=O)N[C@H](CCCCN)C(=O)N[C@H](CCCNC(=N)N)C(=O)N[C@@H](C(=O)N[C@H](CCCNC(=N)N)C(=O)N[C@H](CC(C)C)C(=O)N[C@@H](C(=O)N[C@@H](C(=O)N[C@H](CCCCN)C(=O)N[C@H](CCCCN)C(=O)N[C@H](CCCCN)C(=O)N[C@H](CCCNC(=N)N)C(N)=O)[C@H](C)O)C(C)C)[C@H](C)CC)[C@H](C)O)C(C)C [tANK6] (H-[dR][dK][dR][dI][dR][dL][dV][dT][dK][dK][dK][dR][dR][dK][dR][dI][dR][dL][dV][dT][dK][dK][dK][dR]-NH2; N-terminus assumed)	2.1	two-fold molar excess	more than 97%	0.29	0.335	0.0016	0.5833	0.0016	–
CC[C@@H](C)[C@H]1NC(=O)[C@@H](CCCNC(=N)N)NC(=O)[C@@H](CCCCN)NC(=O)[C@@H](CCCNC(=N)N)NC(=O)[C@@H](CCCNC(=N)N)NC(=O)[C@@H](CCCNC(=N)N)NC(=O)[C@@H](CCCCN)NC(=O)[C@@H](CCCCN)NC(=O)[C@@H](CCCCN)NC(=O)[C@@H]([C@H](C)O)NC(=O)[C@@H](C(C)C)NC(=O)[C@@H](CC(C)C)NC(=O)[C@@H](CCCNC(=N)N)NC1=O [cANK6r] (cyclo([dR][dK][dR][dI][dR][dL][dV][dT][dK][dK][dK][dR][dR]))	3.7	about eight-fold molar excess	–	1.36	–0.329	0.0003	0.0396	0.0003	–
CC[C@@H](C)[C@@H](NC(=O)[C@@H](CCCNC(=N)N)NC(=O)[C@@H](CCCCN)NC(=O)[C@H](N)CCCNC(=N)N)C(=O)N[C@H](CCCNC(=N)N)C(=O)N[C@H](CC(C)C)C(=O)N[C@@H](C(=O)N[C@@H](C(=O)N[C@H](CCCCN)C(=O)N[C@H](CCCCN)C(=O)N[C@H](CCCCN)C(=O)N[C@H](CCCNC(=N)N)C(N)=O)[C@H](C)O)C(C)C [ANK6] (H-[dR][dK][dR][dI][dR][dL][dV][dT][dK][dK][dK][dR]-NH2; N-terminus assumed)	–	two-fold molar excess	more than 97%	1.43	–0.401	0.0003	0.0575	0.0003	3.6

Source: article PMC6218115, “In Vitro Potency and Preclinical Pharmacokinetic Comparison of All-D-Enantiomeric Peptides Developed for the Treatment of Alzheimer’s Disease” (Journal of Alzheimer's Disease, 2018)
